Results taken from publication PMC11921344, “Antimicrobial peptide DiPGLa-H exhibits the most outstanding anti-infective activity among the PGLa variants based on a systematic comparison” (Applied and Environmental Microbiology, 2025).
Where no end group is shown, it is not given here.

How the values were obtained:
Gram-positive bacteria = assay: Geometric mean MIC and therapeutic index, Gram-positive; assay type: cell-based; settings: geometric mean of the peptide MICs against Gram-positive strains
Experimental: (§1) The antibacterial activity was evaluated using a standard MIC and MBC assay according to the National Committee for Clinical Laboratory Standards (NCCLS). MIC, MBC assay, and time-kill curves for the optimal peptide are provided in the Supplementary Materials.
Antimicrobial Activity Assays. The antibacterial activity of the peptides was determined using a method designed from the National Committee for Clinical Laboratory Standards (NCCLS) in the United States. All the strains used in the experiment are preserved in the laboratory. Briefly, log phase bacterial cells were diluted in MHB to a final concentration of 0.5-1x10^5 CFU/mL. Subsequently, 50μL of different concentrations of polypeptides were incubated with 50 μL of bacterial solution in sterile 96-well plates. In the minimum inhibitory concentration (MIC) assay, the plate was incubated at 37°C for 24 h, and the minimum inhibitory concentration (MIC) was determined by the absorbance at 492 nm of the microplate reader, and the minimum inhibitory concentration (MIC) inhibited 95% of bacteria grow. Determination of minimum bactericidal concentration: the plate was incubated at 37°C for 4 hours, 50 μL of the mixture was taken out of each well, diluted with an appropriate amount of PBS, smeared on the agar plate, and cultured overnight. Colonies were counted and the initial CFU/well was retrospectively calculated the following day. The lowest concentration of peptide that kills 99.9% of bacterial cells is the minimum bactericidal concentration (µM), Each test was replicated at least 3 times.

E. coli K88 [1] = assay: Time-kill (bactericidal) curve; assay type: cell-based, Escherichia coli; settings: four times MIC, TSB, 37°C
Experimental: as §1
The bactericidal curve of the optimal peptide was further determined. […] Each test was replicated at least 3 times.

[2] = system: E. coli K88 inner membrane; assay: Inner membrane integrity assay (PI); assay type: cell-based, Escherichia coli; settings: 4 µM peptide, 30 min
Experimental: The outer and inner membrane integrity of bacterial cells treated with peptides was assessed using NPN and PI staining, respectively. Full details are provided in the Supplementary Materials.
Inner membrane integrity assay. E. coli K88 cells were washed and resuspended in 0.01 mol l−1 of PBS (pH 7.4) to obtain an OD600 of 0.5, followed by the addition of 10 nmol l−1 of PI (Thermo Fisher Scientific, catalogue no. P1304MP) in the presence of […]. After incubation for 30 min, fluorescence was measured with the excitation wavelength at 535 nm and emission wavelength at 615 nm.

E. coli K88 [3] = assay: Heat, pH and salt sensitivity assay (MIC); assay type: cell-based, Escherichia coli; settings: salts of Table S2
Experimental: To assess the stability of the peptides in physiological conditions, the peptides were incubated with E. coli K88 and S. aureus Mu50 in the presence of salts (150 mM NaCl, 4.5 mM KCl, 6 µM NH4Cl, 8 µM ZnCl2, 1 mM MgCl2, 4 µM FeCl3, and 2.5 µM CaCl2) in accordance with a previously reported protocol. To determine the thermal stability of the peptides, the peptides were pretreated at 100°C for 30 min, 60 min, and 90 min and cooled on ice for 10 min. The effect of acid and base on the antimicrobial activity was measured by treating the peptides for 2 h at pH of 2, 4, 10, and 12 in 10 mM sodium phosphate buffer adjusted with HCl or NaOH.

E. coli K88 biofilm = assay: Anti-biofilm assay (crystal violet); assay type: cell-based, Escherichia coli
Experimental: The anti-biofilm activity of DiPGLa-H was evaluated using a crystal violet staining method. Briefly, 100 µL of bacterial suspension at 1 × 10^6 CFU/mL was incubated with DiPGLa-H (0–64 µM) for 48 h. The biofilm formed was stained with 1% crystal violet, and the absorbance was measured at 595 nm. The biofilm formation and mature biofilm removal assays were conducted. For biofilm formation, a bacterial suspension was incubated with DiPGLa-H, and biofilm content was quantified. To assess mature biofilm removal, pre-formed biofilms were treated with DiPGLa-H for 24 h, followed by quantification. Detailed Protocol in Supplementary Materials.
To test the ability of DiPGLa-H to […] on the test bacteria, a single colony was inoculated in MHB medium and incubated overnight at 37 °C and 180 r/min, and 1% of the bacterial suspension was taken and continued to be amplified and incubated for 2 h. […] The biofilm content was analyzed by measuring the absorbance value at 595 nm, and anhydrous ethanol was used as a blank control. […]

E. coli = settings: one range printed for E. coli and S. aureus; cited from earlier work
Experimental: (§2) PGLa, an amphibian 21-residue cationic AMP, with a net charge of +4, was found in the skin of the toad Xenopus laevis ([6]). The minimum inhibitory concentration (MIC) of PGLa against Escherichia coli 25922 and S. aureus 25923 were 10–50 μg/mL and 50–100 μg/mL, respectively ([6]). […] The rep ...

S. aureus = settings: one range printed for E. coli and S. aureus; cited from earlier work
Experimental: as §2

Substance: KIAKVALKALKIAKVALKAL-NH2 (C-terminus assumed) [DiPGLa-H]
- GMMIC Gram-positive (Gram-positive bacteria): 5.66 µM
- time to complete eradication of E. coli K88 (E. coli K88 [1]): ≤ 30 min
- inner membrane damage (PI) [2]: 267%
- elevation in MIC values by cationic ions, E. coli K88 (E. coli K88 [3]): 2–8 times
- concentration for effective inhibition of biofilm formation (E. coli K88 biofilm; 1×10^6 CFU/mL, DiPGLa-H 0-64 µM, 48 h, crystal violet, 595 nm): above 4 µM
- concentration effectively eradicating biofilms (E. coli K88 biofilm; pre-formed biofilm treated with DiPGLa-H 0-64 µM for 24 h): above 16 µM
- MIC E. coli (E. coli): 0.75 to 1.5 µM
- MIC S. aureus (S. aureus): 0.75 to 1.5 µM
